Tested on: MV-4-11 cells
Assay: Gene expression microarray analysis (Affymetrix PrimeView) and GSEA
Type: cell-based, human
Set-up: RFU PODN (11730768_x_at) / Fold change /veh PODN (11730768_x_at) / RFU LINC00158 (11744669_a_at) / Fold change /veh LINC00158 (11744669_a_at) / RFU DUSP10 (11751237_a_at) / Fold change /veh DUSP10 (11751237_a_at) / RFU ID3 (11757404_x_at) / Fold change /veh ID3 (11757404_x_at) / RFU PLEKHG5 (11737974_s_at) / Fold change /veh PLEKHG5 (11737974_s_at) / RFU LRRC4B (11730491_at) / Fold change /veh LRRC4B (11730491_at) / RFU GIMAP4 (11747438_a_at) / Fold change /veh GIMAP4 (11747438_a_at) / RFU KRT8 (11758183_x_at) / Fold change /veh KRT8 (11758183_x_at) / RFU CNN1 (11734310_a_at) / Fold change /veh CNN1 (11734310_a_at) / RFU VPS37D (11726825_at) / Fold change /veh VPS37D (11726825_at) / RFU C10orf10 (11716522_x_at) / Fold change /veh C10orf10 (11716522_x_at) / RFU KIR2DL2 /// KIR2DL4 /// KIR2DL5A /// KIR2DL5B /// KIR2DS1 /// KIR2DS2 /// KIR2DS3 /// KIR2DS4 /// KIR3DL3 /// KIR3DL3 /// KIR3DS1 (11738374_at) / Fold change /veh KIR2DL2 /// KIR2DL4 /// KIR2DL5A /// KIR2DL5B /// KIR2DS1 /// KIR2DS2 /// KIR2DS3 /// KIR2DS4 /// KIR3DL3 /// KIR3DL3 /// KIR3DS1 (11738374_at) / RFU C1QL1 (11718748_at) / Fold change /veh C1QL1 (11718748_at) / RFU TMPRSS4 (11747572_a_at) / Fold change /veh TMPRSS4 (11747572_a_at) / RFU HAMP (11756126_x_at) / Fold change /veh HAMP (11756126_x_at) / RFU RNFT2 (11725882_a_at) / Fold change /veh RNFT2 (11725882_a_at) / RFU NR4A2 (11747474_a_at) / Fold change /veh NR4A2 (11747474_a_at) / RFU ABCC12 (11746883_a_at) / Fold change /veh ABCC12 (11746883_a_at) / RFU TMEM136 (11760407_x_at) / Fold change /veh TMEM136 (11760407_x_at) / RFU CLDN22 /// WWC2 (11732394_at) / Fold change /veh CLDN22 /// WWC2 (11732394_at) / RFU HLA-DPB1 (11760878_x_at) / Fold change /veh HLA-DPB1 (11760878_x_at) / RFU SPINT1 (11716480_a_at) / Fold change /veh SPINT1 (11716480_a_at) / RFU GAP43 (11754022_s_at) / Fold change /veh GAP43 (11754022_s_at) / RFU A4GNT (11735810_at) / Fold change /veh A4GNT (11735810_at) / RFU PRB3 (11715151_x_at) / Fold change /veh PRB3 (11715151_x_at) / RFU TUBB4B (11761932_at) / Fold change /veh TUBB4B (11761932_at) / RFU CAPN14 (11732068_a_at) / Fold change /veh CAPN14 (11732068_a_at) / RFU TMCC2 (11721928_a_at) / Fold change /veh TMCC2 (11721928_a_at) / RFU IRGQ (11745062_a_at) / Fold change /veh IRGQ (11745062_a_at) / RFU FAM174B (11720279_a_at) / Fold change /veh FAM174B (11720279_a_at) / RFU TMPRSS4 (11748680_a_at) / Fold change /veh TMPRSS4 (11748680_a_at) / RFU FAM212B (11763350_a_at) / Fold change /veh FAM212B (11763350_a_at) / RFU PLEKHG5 (11743358_a_at) / Fold change /veh PLEKHG5 (11743358_a_at) / RFU ZSCAN30 (11745921_a_at) / Fold change /veh ZSCAN30 (11745921_a_at) / RFU CMKLR1 (11741424_a_at) / Fold change /veh CMKLR1 (11741424_a_at) / RFU LOC101060620 /// MAPK8IP1 (11723275_at) / Fold change /veh LOC101060620 /// MAPK8IP1 (11723275_at) / RFU SPTSSB (11747773_x_at) / Fold change /veh SPTSSB (11747773_x_at) / RFU PRSS12 (11739890_at) / Fold change /veh PRSS12 (11739890_at) / RFU BIN1 (11741810_x_at) / Fold change /veh BIN1 (11741810_x_at) / RFU WNT11 (11732464_a_at) / Fold change /veh WNT11 (11732464_a_at) / RFU C10orf10 (11716521_a_at) / Fold change /veh C10orf10 (11716521_a_at) / RFU C5orf56 (11738089_at) / Fold change /veh C5orf56 (11738089_at) / RFU CYB561 (11721691_x_at) / Fold change /veh CYB561 (11721691_x_at) / RFU ANKRD19P (11752326_a_at) / Fold change /veh ANKRD19P (11752326_a_at) / RFU OR2T12 /// OR2T33 /// OR2T8 (11738714_s_at) / Fold change /veh OR2T12 /// OR2T33 /// OR2T8 (11738714_s_at) / RFU VCAN (11748164_a_at) / Fold change /veh VCAN (11748164_a_at) / RFU JSRP1 (11732532_at) / Fold change /veh JSRP1 (11732532_at) / RFU KRTAP10-11 (11738290_x_at) / Fold change /veh KRTAP10-11 (11738290_x_at) / RFU MYO3A (11730013_a_at) / Fold change /veh MYO3A (11730013_a_at) / RFU EBF3 (11725865_a_at) / Fold change /veh EBF3 (11725865_a_at) / RFU CAMK2N1 (11719241_x_at) / Fold change /veh CAMK2N1 (11719241_x_at) / RFU C5orf56 (11738088_a_at) / Fold change /veh C5orf56 (11738088_a_at) / RFU OLFML3 (11715873_a_at) / Fold change /veh OLFML3 (11715873_a_at) / RFU LOC100653217 /// NTM (11731650_a_at) / Fold change /veh LOC100653217 /// NTM (11731650_a_at) / RFU MAPK11 (11762145_a_at) / Fold change /veh MAPK11 (11762145_a_at) / RFU FIZ1 (11724087_x_at) / Fold change /veh FIZ1 (11724087_x_at) / RFU OASL (11726364_x_at) / Fold change /veh OASL (11726364_x_at) / RFU SOX15 (11748057_x_at) / Fold change /veh SOX15 (11748057_x_at) / RFU CD79A (11719716_a_at) / Fold change /veh CD79A (11719716_a_at) / RFU HIST1H1D (11736915_at) / Fold change /veh HIST1H1D (11736915_at) / RFU CASKIN2 (11723855_a_at) / Fold change /veh CASKIN2 (11723855_a_at) / RFU LOC730098 (11760151_x_at) / Fold change /veh LOC730098 (11760151_x_at) / RFU OR4N2 (11742367_at) / Fold change /veh OR4N2 (11742367_at) / RFU PRRT2 (11749266_a_at) / Fold change /veh PRRT2 (11749266_a_at) / RFU SNX32 (11753110_a_at) / Fold change /veh SNX32 (11753110_a_at) / RFU CDHR5 (11726645_a_at) / Fold change /veh CDHR5 (11726645_a_at) / RFU RCAN1 (11760418_a_at) / Fold change /veh RCAN1 (11760418_a_at) / RFU FAM167A (11723789_a_at) / Fold change /veh FAM167A (11723789_a_at) / RFU FAM26E (11764081_at) / Fold change /veh FAM26E (11764081_at) / RFU ISYNA1 (11749810_s_at) / Fold change /veh ISYNA1 (11749810_s_at) / RFU ACY1 (11761880_at) / Fold change /veh ACY1 (11761880_at) / RFU 11764098_at / Fold change /veh 11764098_at / RFU SAMD14 (11745864_x_at) / Fold change /veh SAMD14 (11745864_x_at) / RFU NPB (11741838_a_at) / Fold change /veh NPB (11741838_a_at) / RFU TMPRSS6 (11731388_a_at) / Fold change /veh TMPRSS6 (11731388_a_at) / RFU KRTAP10-2 (11738614_at) / Fold change /veh KRTAP10-2 (11738614_at) / RFU ARHGAP8 /// PRR5-ARHGAP8 (11727945_x_at) / Fold change /veh ARHGAP8 /// PRR5-ARHGAP8 (11727945_x_at) / RFU KRTAP5-7 /// NADSYN1 (11734609_at) / Fold change /veh KRTAP5-7 /// NADSYN1 (11734609_at) / RFU RASL12 (11751679_a_at) / Fold change /veh RASL12 (11751679_a_at) / RFU CDKN2B (11736163_a_at) / Fold change /veh CDKN2B (11736163_a_at) / RFU PRF1 (11729649_at) / Fold change /veh PRF1 (11729649_at) / RFU, ZNF638 /// ZNF638-IT1 / Fold change vs veh, ZNF638 /// ZNF638-IT1 / RFU, PANK3 / Fold change vs veh, PANK3 / RFU, SH3YL1 / Fold change vs veh, SH3YL1 / RFU, ZEB2 / Fold change vs veh, ZEB2 / RFU, NRIP1 / Fold change vs veh, NRIP1 / RFU, PTTG1IP / Fold change vs veh, PTTG1IP / RFU, CAPN2 / Fold change vs veh, CAPN2 / RFU, MED14 / Fold change vs veh, MED14 / RFU, SNORA58 / Fold change vs veh, SNORA58 / RFU, C1orf63 / Fold change vs veh, C1orf63 / RFU, LRRFIP1 / Fold change vs veh, LRRFIP1 / RFU, NDUFAF7 / Fold change vs veh, NDUFAF7 / RFU, SLC12A2 / Fold change vs veh, SLC12A2 / RFU, IBTK / Fold change vs veh, IBTK / RFU, ESF1 / Fold change vs veh, ESF1 / Fold change vs veh, TMEM50B / RFU, TAOK1 / Fold change vs veh, TAOK1 / RFU, ACBD3 / Fold change vs veh, ACBD3 / RFU, TMA16 / Fold change vs veh, TMA16 / RFU, RWDD3 / Fold change vs veh, RWDD3 / RFU, BCAT1 / Fold change vs veh, BCAT1 / RFU, EDEM3 / Fold change vs veh, EDEM3 / RFU, TMEM33 / Fold change vs veh, TMEM33 / RFU, WDR75 / Fold change vs veh, WDR75 / RFU, AHCTF1 / Fold change vs veh, AHCTF1 / RFU, TFRC / Fold change vs veh, TFRC / RFU, ZDHHC17 / Fold change vs veh, ZDHHC17 / RFU, NOM1 / Fold change vs veh, NOM1 / RFU, ARL8B / Fold change vs veh, ARL8B / RFU, ZBTB11 / Fold change vs veh, ZBTB11 / RFU, TAMM41 / Fold change vs veh, TAMM41 / RFU, KIAA1704 /// LOC100996395 / Fold change vs veh, KIAA1704 /// LOC100996395 / RFU, ING1 / Fold change vs veh, ING1 / RFU, TRMT61B / Fold change vs veh, TRMT61B / RFU, FUBP3 / Fold change vs veh, FUBP3 / RFU, TP53 / Fold change vs veh, TP53 / RFU, TNKS2 / Fold change vs veh, TNKS2 / RFU, ZFP14 / Fold change vs veh, ZFP14 / RFU, ACTR2 / Fold change vs veh, ACTR2 / RFU, PPP3R1 / Fold change vs veh, PPP3R1 / RFU, PIK3R1 / Fold change vs veh, PIK3R1 / RFU, HNRNPA1 / Fold change vs veh, HNRNPA1 / RFU, RNF170 / Fold change vs veh, RNF170 / RFU, ZNF28 / Fold change vs veh, ZNF28 / RFU, RNGTT / Fold change vs veh, RNGTT / RFU, OGT / Fold change vs veh, OGT / RFU, BRD1 / Fold change vs veh, BRD1 / RFU, MARS / Fold change vs veh, MARS / RFU, ZNF655 / Fold change vs veh, ZNF655 / RFU, FAHD1 / Fold change vs veh, FAHD1 / RFU, BDP1 / Fold change vs veh, BDP1 / RFU, LRRCC1 / Fold change vs veh, LRRCC1 / RFU, ARID1A / Fold change vs veh, ARID1A / RFU, ZNF146 / Fold change vs veh, ZNF146 / RFU, ZNF330 / Fold change vs veh, ZNF330 / RFU, GPN3 / Fold change vs veh, GPN3 / RFU, C9orf123 / Fold change vs veh, C9orf123 / RFU, N4BP2L2 / Fold change vs veh, N4BP2L2 / RFU, ARFIP1 / Fold change vs veh, ARFIP1 / RFU, FAM179B / Fold change vs veh, FAM179B / RFU, BCL10 / Fold change vs veh, BCL10 / RFU, UHRF1BP1L / Fold change vs veh, UHRF1BP1L / RFU, BET1 / Fold change vs veh, BET1 / RFU, CNOT2 / Fold change vs veh, CNOT2 / RFU, ZNF268 / Fold change vs veh, ZNF268 / Fold change vs veh, ZNF507 / RFU, DGCR2 / Fold change vs veh, DGCR2 / RFU, WDSUB1 / Fold change vs veh, WDSUB1 / Fold change vs veh, HSP90B1 /// MIR3652 / RFU, ADSS / Fold change vs veh, ADSS / RFU, GK / Fold change vs veh, GK / RFU, ZNF148 / Fold change vs veh, ZNF148 / RFU, TAF9 / Fold change vs veh, TAF9 / RFU, SLC1A5 / Fold change vs veh, SLC1A5 / RFU, SLMO2 / Fold change vs veh, SLMO2 / RFU, ABCC4 / Fold change vs veh, ABCC4 / RFU, LOC101060439 /// RAP1B / Fold change vs veh, LOC101060439 /// RAP1B / RFU, RFX7 / Fold change vs veh, RFX7 / RFU, GTPBP10 / Fold change vs veh, GTPBP10 / RFU, CNEP1R1 / Fold change vs veh, CNEP1R1 / RFU, BIVM-ERCC5 /// ERCC5 / Fold change vs veh, BIVM-ERCC5 /// ERCC5 / RFU, ILF3 / Fold change vs veh, ILF3 / RFU 11762660_at / Fold change /veh 11762660_at / RFU VCAN (11757783_s_at) / Fold change /veh VCAN (11757783_s_at) / RFU DDX43 (11728927_at) / Fold change /veh DDX43 (11728927_at) / RFU KRT8 (11758188_x_at) / Fold change /veh KRT8 (11758188_x_at) / RFU NKD1 (11759106_at) / Fold change /veh NKD1 (11759106_at) / RFU SRD5A1 (11742802_a_at) / Fold change /veh SRD5A1 (11742802_a_at) / RFU TPSAB1 /// TPSB2 (11721975_s_at) / Fold change /veh TPSAB1 /// TPSB2 (11721975_s_at) / RFU GSTM3 (11746129_a_at) / Fold change /veh GSTM3 (11746129_a_at) / RFU IL23R (11737362_x_at) / Fold change /veh IL23R (11737362_x_at) / RFU TMEM51 (11727254_a_at) / Fold change /veh TMEM51 (11727254_a_at) / RFU PIWIL2 (11732686_x_at) / Fold change /veh PIWIL2 (11732686_x_at) / RFU ORM1 (11744905_x_at) / Fold change /veh ORM1 (11744905_x_at) / RFU CCDC152 (11743942_at) / Fold change /veh CCDC152 (11743942_at) / RFU ECM1 (11717891_a_at) / Fold change /veh ECM1 (11717891_a_at) / RFU IL23R (11748794_a_at) / Fold change /veh IL23R (11748794_a_at) / RFU TNFAIP8L3 (11732012_x_at) / Fold change /veh TNFAIP8L3 (11732012_x_at) / RFU MBOAT4 (11741988_at) / Fold change /veh MBOAT4 (11741988_at) / RFU 11764193_at / Fold change /veh 11764193_at / RFU TMEM53 (11763286_at) / Fold change /veh TMEM53 (11763286_at) / RFU MAGEB2 (11727129_at) / Fold change /veh MAGEB2 (11727129_at) / RFU TMEM200A (11744735_a_at) / Fold change /veh TMEM200A (11744735_a_at) / RFU CCDC152 (11751479_a_at) / Fold change /veh CCDC152 (11751479_a_at) / RFU FAM211A (11726209_a_at) / Fold change /veh FAM211A (11726209_a_at) / RFU RGS16 (11746705_a_at) / Fold change /veh RGS16 (11746705_a_at) / RFU VCAN (11755009_s_at) / Fold change /veh VCAN (11755009_s_at) / RFU RHOB (11743442_s_at) / Fold change /veh RHOB (11743442_s_at) / RFU RGS16 (11720943_a_at) / Fold change /veh RGS16 (11720943_a_at) / RFU RGS16 (11720944_at) / Fold change /veh RGS16 (11720944_at) / RFU, VPS4B / Fold change vs veh, VPS4B / RFU, CREB1 / Fold change vs veh, CREB1 / RFU, DNAJC13 / Fold change vs veh, DNAJC13 / RFU, GNAQ / Fold change vs veh, GNAQ / RFU, CDK5R1 / Fold change vs veh, CDK5R1 / RFU, ZRANB3 / Fold change vs veh, ZRANB3 / RFU, CUL4A / Fold change vs veh, CUL4A / RFU, CCNY / Fold change vs veh, CCNY / RFU, UFL1 / Fold change vs veh, UFL1 / RFU, COG3 / Fold change vs veh, COG3 / RFU, DIAPH2 / Fold change vs veh, DIAPH2 / RFU, SKA2 / Fold change vs veh, SKA2 / RFU, AFF3 / Fold change vs veh, AFF3 / RFU, LMF1 / Fold change vs veh, LMF1 / RFU, IPO11 / Fold change vs veh, IPO11 / RFU, DFFB / Fold change vs veh, DFFB / RFU, FOXP1 / Fold change vs veh, FOXP1 / RFU, CARD8 / Fold change vs veh, CARD8 / RFU, STRN3 / Fold change vs veh, STRN3 / RFU, ADK / Fold change vs veh, ADK / RFU, RASSF2 / Fold change vs veh, RASSF2 / RFU, WIPF1 / Fold change vs veh, WIPF1 / RFU, LARP1B / Fold change vs veh, LARP1B / RFU, RASA1 / Fold change vs veh, RASA1 / RFU, RB1 / Fold change vs veh, RB1 / RFU, PPFIA1 / Fold change vs veh, PPFIA1 / RFU, MAT2A / Fold change vs veh, MAT2A / RFU, CCT5 / Fold change vs veh, CCT5 / RFU, WDR92 / Fold change vs veh, WDR92 / RFU, CUX1 / Fold change vs veh, CUX1 / RFU, TTC7A / Fold change vs veh, TTC7A / RFU, TMEM135 / Fold change vs veh, TMEM135 / RFU, DEPTOR / Fold change vs veh, DEPTOR / RFU, CPM / Fold change vs veh, CPM / RFU, DNAJB6 / Fold change vs veh, DNAJB6 / RFU, CACNA2D3 / Fold change vs veh, CACNA2D3 / RFU, DTX4 / Fold change vs veh, DTX4 / RFU, TFCP2 / Fold change vs veh, TFCP2 / RFU, GMCL1 /// GMCL1P1 / Fold change vs veh, GMCL1 /// GMCL1P1 / RFU, AEBP2 / Fold change vs veh, AEBP2 / RFU, SNHG1 /// SNORD22 /// SNORD25 /// SNORD26 /// SNORD27 /// SNORD28 /// SNORD29 /// SNORD31 / Fold change vs veh, SNHG1 /// SNORD22 /// SNORD25 /// SNORD26 /// SNORD27 /// SNORD28 /// SNORD29 /// SNORD31 / Fold change (Aza/veh), C12orf56 (ProbeSet 11735607_a_at) / Fold change (ACY-1035/veh), C12orf56 (ProbeSet 11735607_a_at) / Fold change (Aza/veh), FGFR1OP (ProbeSet 11751329_s_at) / Fold change (ACY-1035/veh), FGFR1OP (ProbeSet 11751329_s_at) / Fold change (Aza/veh), VPS36 (ProbeSet 11739960_a_at) / Fold change (ACY-1035/veh), VPS36 (ProbeSet 11739960_a_at) / RFU SYPL1 (11715823_x_at) / Fold change /veh SYPL1 (11715823_x_at) / RFU IGFBP7 (11715501_s_at) / Fold change /veh IGFBP7 (11715501_s_at) / RFU REEP3 (11722064_at) / Fold change /veh REEP3 (11722064_at) / RFU IGLL1 (11728026_x_at) / Fold change /veh IGLL1 (11728026_x_at): dose or concentration left out as unconfirmed
Settings: ProbeSet 11718701_a_at; LIST B

Compound: Nc1ccc(-c2cccs2)cc1NC(=O)c1ccc2c(c1)cc(C1CC1)n2CCN1CCOCC1 [ACY-1035]
- Fold change vs veh, ARFIP1: 0.86
